Measurements from article PMC9661478 (Journal of Medicinal Chemistry, 2022).

Key:
[1] = molecular target: GDP-KRAS^G12C::SOS1 interaction (Homo sapiens, UniProt P01116, G12C); assay: biochemical
[2] = tested on: GP2D cells; assay: GP2D proliferation assay; type: cell-based; details: KRAS^G12D mutation
[3] = tested on: LS513 cells; assay: LS513 proliferation assay; type: cell-based; details: KRAS^G12D mutation
[4] = Body weight changes in the NCI-H358 efficacy study; details: both dose groups; less pronounced for the low dose group
[5] = tested on: p-ERK; assay: pERK1/2 immunoassay; details: 40 mg/kg ip daily x3
[6] = tested on: cleaved caspase 3; assay: Cleaved caspase-3 immunoassay; details: 40 mg/kg ip daily x3

Chain of GDP-KRAS^G12C::SOS1 interaction (P01116 1-169 isoform P01116-2 G12C limits assumed): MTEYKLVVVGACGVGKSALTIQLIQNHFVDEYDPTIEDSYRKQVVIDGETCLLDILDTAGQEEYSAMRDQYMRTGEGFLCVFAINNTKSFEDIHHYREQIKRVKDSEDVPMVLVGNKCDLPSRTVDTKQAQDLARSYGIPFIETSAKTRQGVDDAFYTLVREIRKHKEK

SMILES	IC50 [1]	concentration above which antiproliferative effect was observed, GP2D cells [2]	concentration above which antiproliferative effect was observed, LS513 cells [3]	body weight change compared to vehicle [4]	reduction of p-ERK levels ([5]; 2 h post last dose)	reduction of p-ERK levels ([5]; 6 h post last dose)	induction of apoptosis (cleaved caspase 3) detectable in treated samples ([6]; 2 h post-dose on day 3)	induction of apoptosis (cleaved caspase 3) detectable in treated samples ([6]; 6 h post-dose on day 3)
C=CC(=O)N1CCN(c2cccc(-c3noc([C@@]4(C)CCCc5sc(N)c(C#N)c54)n3)c2)CC1 [Compound 22, (4S)-2-Amino-4-methyl-4-(3-{3-[4-(prop-2-enoyl)piperazin-1-yl]phenyl}-1,2,4-oxadiazol-5-yl)-4,5,6,7-tetrahydro-1-benzothiophene-3-carbonitrile]	~3 µM							
C=CC(=O)N1CCN(c2cc(-c3noc([C@@]4(C)CCCc5sc(N)c(C#N)c54)n3)nc(N3CCN(C)C[C@@H]3C)c2)CC1 [BI-0474, (4S)-2-Amino-4-(3-{6-[(2S)-2,4-dimethylpiperazin-1-yl]-4-[4-(prop-2-enoyl)piperazin-1-yl]pyridin-2-yl}-1,2,4-oxadiazol-5-yl)-4-methyl-4,5,6,7-tetrahydro-1-benzothiophene-3-carbonitrile]		above 4 μM	above 4 μM	some body weight loss	five-fold	six-fold	one out of five	all five
